Experimental data: PubChem BioAssay (NCI)
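These data come from cells grown in 96-well plates and exposed to compound for 48 hours at five concentrations. TGI is the concentration that stops growth completely.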

How the values were obtained:
Assay in all cases: inhibition of tumour cell growth, NCI panel, 48 h
786-0 renal = system: 786-0 renal
A549 NSCLC = system: A549 NSCLC
ACHN renal = system: ACHN renal
CAKI-1 renal = system: CAKI-1 renal
CCRF-CEM leukemia = system: CCRF-CEM leukemia
COLO 205 colon = system: COLO 205 colon
DLD-1 colon = system: DLD-1 colon
DMS 114 small cell lung = system: DMS 114 small cell lung
EKVX NSCLC = system: EKVX NSCLC
HCC-2998 colon = system: HCC-2998 colon
HCT-116 colon = system: HCT-116 colon
HCT-15 colon = system: HCT-15 colon
HL-60(TB) leukemia = system: HL-60(TB) leukemia
HOP-62 NSCLC = system: HOP-62 NSCLC
HT29 colon = system: HT29 colon
IGROV1 ovarian = system: IGROV1 ovarian
K-562 leukemia = system: K-562 leukemia
KM12 colon = system: KM12 colon
KM20L2 colon = system: KM20L2 colon
LOX IMVI melanoma = system: LOX IMVI melanoma
LXFL 529 NSCLC = system: LXFL 529 NSCLC
M14 melanoma = system: M14 melanoma
M19-MEL melanoma = system: M19-MEL melanoma
MALME-3M melanoma = system: MALME-3M melanoma
MOLT-4 leukemia = system: MOLT-4 leukemia
NCI-H226 lung = system: NCI-H226 lung
NCI-H23 lung = system: NCI-H23 lung
NCI-H460 lung = system: NCI-H460 lung
NCI-H522 lung = system: NCI-H522 lung
OVCAR-3 ovarian = system: OVCAR-3 ovarian
OVCAR-4 ovarian = system: OVCAR-4 ovarian
OVCAR-5 ovarian = system: OVCAR-5 ovarian
OVCAR-8 ovarian = system: OVCAR-8 ovarian
RPMI-8226 leukemia = system: RPMI-8226 leukemia
SF-268 CNS = system: SF-268 CNS
SF-295 CNS = system: SF-295 CNS
SF-539 CNS = system: SF-539 CNS
SK-MEL-2 melanoma = system: SK-MEL-2 melanoma
SK-MEL-5 melanoma = system: SK-MEL-5 melanoma
SK-OV-3 ovarian = system: SK-OV-3 ovarian
SN12C renal = system: SN12C renal
SNB-19 CNS = system: SNB-19 CNS
SNB-78 CNS = system: SNB-78 CNS
SR leukemia = system: SR leukemia
SW-620 colon = system: SW-620 colon
TK-10 renal = system: TK-10 renal
U251 CNS = system: U251 CNS
UACC-257 melanoma = system: UACC-257 melanoma
UACC-62 melanoma = system: UACC-62 melanoma
UO-31 renal = system: UO-31 renal
DMS 273 small cell lung = system: DMS 273 small cell lung
RXF 393 renal = system: RXF 393 renal
SK-MEL-28 melanoma = system: SK-MEL-28 melanoma
SNB-75 CNS = system: SNB-75 CNS
XF 498 CNS = system: XF 498 CNS

SMILES: CC#COS(=O)(=O)c1ccc(C)cc1
- TGI (786-0 renal): > 100 µM
- TGI (A549 NSCLC): > 100 µM
- TGI (ACHN renal): > 100 µM
- TGI (CAKI-1 renal): > 100 µM
- TGI (CCRF-CEM leukemia): > 100 µM
- TGI (COLO 205 colon): > 100 µM
- TGI (DLD-1 colon): > 100 µM
- TGI (DMS 114 small cell lung): > 100 µM
- TGI (EKVX NSCLC): > 100 µM
- TGI (HCC-2998 colon): > 100 µM
- TGI (HCT-116 colon): > 100 µM
- TGI (HCT-15 colon): > 100 µM
- TGI (HL-60(TB) leukemia): 59.8 µM
- TGI (HOP-62 NSCLC): > 100 µM
- TGI (HT29 colon): > 100 µM
- TGI (IGROV1 ovarian): > 100 µM
- TGI (K-562 leukemia): > 100 µM
- TGI (KM12 colon): > 100 µM
- TGI (KM20L2 colon): > 100 µM
- TGI (LOX IMVI melanoma): > 100 µM
- TGI (LXFL 529 NSCLC): > 100 µM
- TGI (M14 melanoma): > 100 µM
- TGI (M19-MEL melanoma): > 100 µM
- TGI (MALME-3M melanoma): > 100 µM
- TGI (MOLT-4 leukemia): > 100 µM
- TGI (NCI-H226 lung): > 100 µM
- TGI (NCI-H23 lung): > 100 µM
- TGI (NCI-H460 lung): > 100 µM
- TGI (NCI-H522 lung): > 100 µM
- TGI (OVCAR-3 ovarian): > 100 µM
- TGI (OVCAR-4 ovarian): > 100 µM
- TGI (OVCAR-5 ovarian): > 100 µM
- TGI (OVCAR-8 ovarian): > 100 µM
- TGI (RPMI-8226 leukemia): 60.2 µM
- TGI (SF-268 CNS): > 100 µM
- TGI (SF-295 CNS): > 100 µM
- TGI (SF-539 CNS): > 100 µM
- TGI (SK-MEL-2 melanoma): > 100 µM
- TGI (SK-MEL-5 melanoma): > 100 µM
- TGI (SK-OV-3 ovarian): > 100 µM
- TGI (SN12C renal): > 100 µM
- TGI (SNB-19 CNS): > 100 µM
- TGI (SNB-78 CNS): > 100 µM
- TGI (SR leukemia): > 100 µM
- TGI (SW-620 colon): > 100 µM
- TGI (TK-10 renal): > 100 µM
- TGI (U251 CNS): > 100 µM
- TGI (UACC-257 melanoma): > 100 µM
- TGI (UACC-62 melanoma): > 100 µM
- TGI (UO-31 renal): > 100 µM

SMILES: O=C1Nc2ccc(Cl)c(I)c2C1=O
- TGI (786-0 renal): 36.8 µM
- TGI (A549 NSCLC): > 100 µM
- TGI (ACHN renal): 30.7 µM
- TGI (CAKI-1 renal): 37.9 µM
- TGI (CCRF-CEM leukemia): 57.4 µM
- TGI (COLO 205 colon): 35.1 µM
- TGI (DLD-1 colon): 31.4 µM
- TGI (DMS 114 small cell lung): 34.2 µM
- TGI (DMS 273 small cell lung): 30.8 µM
- TGI (EKVX NSCLC): 20.8 µM
- TGI (HCC-2998 colon): 27.7 µM
- TGI (HCT-116 colon): 28.8 µM
- TGI (HCT-15 colon): 43.7 µM
- TGI (HL-60(TB) leukemia): 41.3 µM
- TGI (HOP-62 NSCLC): 34.8 µM
- TGI (HT29 colon): 75.9 µM
- TGI (IGROV1 ovarian): 30.9 µM
- TGI (K-562 leukemia): 65.5 µM
- TGI (KM12 colon): 76.3 µM
- TGI (KM20L2 colon): 34.9 µM
- TGI (LOX IMVI melanoma): 35.1 µM
- TGI (LXFL 529 NSCLC): 30.5 µM
- TGI (M14 melanoma): 31.1 µM
- TGI (M19-MEL melanoma): 24.9 µM
- TGI (MALME-3M melanoma): 34.8 µM
- TGI (MOLT-4 leukemia): 54.6 µM
- TGI (NCI-H226 lung): 20 µM
- TGI (NCI-H23 lung): 37.6 µM
- TGI (NCI-H460 lung): 39.7 µM
- TGI (NCI-H522 lung): 32 µM
- TGI (OVCAR-3 ovarian): 52.3 µM
- TGI (OVCAR-4 ovarian): 32 µM
- TGI (OVCAR-5 ovarian): 34.1 µM
- TGI (OVCAR-8 ovarian): 38.1 µM
- TGI (RXF 393 renal): 29.8 µM
- TGI (SF-268 CNS): 32.6 µM
- TGI (SF-295 CNS): 32.3 µM
- TGI (SK-MEL-2 melanoma): 34.2 µM
- TGI (SK-MEL-28 melanoma): 31.7 µM
- TGI (SK-MEL-5 melanoma): 34.9 µM
- TGI (SK-OV-3 ovarian): 34.6 µM
- TGI (SN12C renal): 30.9 µM
- TGI (SNB-19 CNS): 80.5 µM
- TGI (SNB-75 CNS): 50.8 µM
- TGI (SR leukemia): 50.7 µM
- TGI (SW-620 colon): 36.9 µM
- TGI (TK-10 renal): > 100 µM
- TGI (U251 CNS): 31.2 µM
- TGI (UACC-257 melanoma): 33 µM
- TGI (UACC-62 melanoma): 34.8 µM
- TGI (UO-31 renal): 38.8 µM
- TGI (XF 498 CNS): 34.2 µM
